Experimental data taken from PubChem BioAssay (NCI).
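These data come from cells grown in 96-well plates and exposed to compound for 48 hours at five concentrations. TGI is the concentration that stops growth completely.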

Assays:
Assay in all cases: NCI-60 cell line screen, 48 h
786-0 renal = tested on: 786-0 renal
A498 renal = tested on: A498 renal
A549 NSCLC = tested on: A549 NSCLC
ACHN renal = tested on: ACHN renal
BT-549 breast = tested on: BT-549 breast
CAKI-1 renal = tested on: CAKI-1 renal
CCRF-CEM leukemia = tested on: CCRF-CEM leukemia
COLO 205 colon = tested on: COLO 205 colon
DU-145 prostate = tested on: DU-145 prostate
EKVX NSCLC = tested on: EKVX NSCLC
HCC-2998 colon = tested on: HCC-2998 colon
HCT-116 colon = tested on: HCT-116 colon
HCT-15 colon = tested on: HCT-15 colon
HL-60(TB) leukemia = tested on: HL-60(TB) leukemia
HOP-62 NSCLC = tested on: HOP-62 NSCLC
HOP-92 NSCLC = tested on: HOP-92 NSCLC
HS 578T breast = tested on: HS 578T breast
HT29 colon = tested on: HT29 colon
IGROV1 ovarian = tested on: IGROV1 ovarian
K-562 leukemia = tested on: K-562 leukemia
KM12 colon = tested on: KM12 colon
LOX IMVI melanoma = tested on: LOX IMVI melanoma
M14 melanoma = tested on: M14 melanoma
MALME-3M melanoma = tested on: MALME-3M melanoma
MCF7 breast = tested on: MCF7 breast
MDA-MB-231 breast = tested on: MDA-MB-231 breast
MDA-MB-435 = tested on: MDA-MB-435
MDA-N = tested on: MDA-N
MOLT-4 leukemia = tested on: MOLT-4 leukemia
NCI-H226 lung = tested on: NCI-H226 lung
NCI-H23 lung = tested on: NCI-H23 lung
NCI-H460 lung = tested on: NCI-H460 lung
NCI-H522 lung = tested on: NCI-H522 lung
NCI/ADR-RES ovarian = tested on: NCI/ADR-RES ovarian
OVCAR-3 ovarian = tested on: OVCAR-3 ovarian
OVCAR-4 ovarian = tested on: OVCAR-4 ovarian
OVCAR-5 ovarian = tested on: OVCAR-5 ovarian
OVCAR-8 ovarian = tested on: OVCAR-8 ovarian
PC-3 prostate = tested on: PC-3 prostate
RPMI-8226 leukemia = tested on: RPMI-8226 leukemia
RXF 393 renal = tested on: RXF 393 renal
SF-268 CNS = tested on: SF-268 CNS
SF-295 CNS = tested on: SF-295 CNS
SF-539 CNS = tested on: SF-539 CNS
SK-MEL-2 melanoma = tested on: SK-MEL-2 melanoma
SK-MEL-28 melanoma = tested on: SK-MEL-28 melanoma
SK-MEL-5 melanoma = tested on: SK-MEL-5 melanoma
SK-OV-3 ovarian = tested on: SK-OV-3 ovarian
SN12C renal = tested on: SN12C renal
SNB-19 CNS = tested on: SNB-19 CNS
SNB-75 CNS = tested on: SNB-75 CNS
SR leukemia = tested on: SR leukemia
SW-620 colon = tested on: SW-620 colon
T-47D breast = tested on: T-47D breast
TK-10 renal = tested on: TK-10 renal
U251 CNS = tested on: U251 CNS
UACC-257 melanoma = tested on: UACC-257 melanoma
UACC-62 melanoma = tested on: UACC-62 melanoma
UO-31 renal = tested on: UO-31 renal
DMS 114 small cell lung = tested on: DMS 114 small cell lung
DMS 273 small cell lung = tested on: DMS 273 small cell lung
HOP-18 NSCLC = tested on: HOP-18 NSCLC
KM20L2 colon = tested on: KM20L2 colon
LXFL 529 NSCLC = tested on: LXFL 529 NSCLC
M19-MEL melanoma = tested on: M19-MEL melanoma
SNB-78 CNS = tested on: SNB-78 CNS
DLD-1 colon = tested on: DLD-1 colon

CC(C)(C)c1cc(OCc2nnc3sc(Cc4ccccc4)nn23)c(Cl)cc1OCc1nnc2sc(Cc3ccccc3)nn12
TGI (786-0 renal): 46.7 µM | TGI (A498 renal): 67.2 µM | TGI (A549 NSCLC): > 100 µM | TGI (ACHN renal): 68 µM | TGI (BT-549 breast): 96.9 µM | TGI (CAKI-1 renal): > 100 µM | TGI (CCRF-CEM leukemia): 8.97 µM | TGI (COLO 205 colon): > 100 µM | TGI (DU-145 prostate): > 100 µM | TGI (EKVX NSCLC): > 100 µM | TGI (HCC-2998 colon): 20.9 µM | TGI (HCT-116 colon): 75.2 µM | TGI (HCT-15 colon): > 100 µM | TGI (HL-60(TB) leukemia): 58.3 µM | TGI (HOP-62 NSCLC): > 100 µM | TGI (HOP-92 NSCLC): 35.4 µM | TGI (HS 578T breast): > 100 µM | TGI (HT29 colon): 57.8 µM | TGI (IGROV1 ovarian): 52.4 µM | TGI (K-562 leukemia): > 100 µM | TGI (KM12 colon): 57.2 µM | TGI (LOX IMVI melanoma): > 100 µM | TGI (M14 melanoma): 88 µM | TGI (MALME-3M melanoma): > 100 µM | TGI (MCF7 breast): 37.2 µM | TGI (MDA-MB-231 breast): 39 µM | TGI (MDA-MB-435): 82.9 µM | TGI (MDA-N): > 100 µM | TGI (MOLT-4 leukemia): > 100 µM | TGI (NCI-H226 lung): > 100 µM | TGI (NCI-H23 lung): > 100 µM | TGI (NCI-H460 lung): 42.5 µM | TGI (NCI-H522 lung): > 100 µM | TGI (NCI/ADR-RES ovarian): > 100 µM | TGI (OVCAR-3 ovarian): > 100 µM | TGI (OVCAR-4 ovarian): > 100 µM | TGI (OVCAR-5 ovarian): > 100 µM | TGI (OVCAR-8 ovarian): 73.6 µM | TGI (PC-3 prostate): > 100 µM | TGI (RPMI-8226 leukemia): > 100 µM | TGI (RXF 393 renal): 38.8 µM | TGI (SF-268 CNS): > 100 µM | TGI (SF-295 CNS): > 100 µM | TGI (SF-539 CNS): > 100 µM | TGI (SK-MEL-2 melanoma): > 100 µM | TGI (SK-MEL-28 melanoma): > 100 µM | TGI (SK-MEL-5 melanoma): 31.7 µM | TGI (SK-OV-3 ovarian): > 100 µM | TGI (SN12C renal): > 100 µM | TGI (SNB-19 CNS): > 100 µM | TGI (SNB-75 CNS): 84.8 µM | TGI (SR leukemia): 70.6 µM | TGI (SW-620 colon): > 100 µM | TGI (T-47D breast): 38.5 µM | TGI (TK-10 renal): 82.9 µM | TGI (U251 CNS): 34.6 µM | TGI (UACC-257 melanoma): 63.5 µM | TGI (UACC-62 melanoma): 49.8 µM | TGI (UO-31 renal): > 100 µM

COc1ccc(N2C(=O)[C@@H](N=[N+]=[N-])[C@@H]2[C@H]2COC(C)(C)O2)cc1
TGI (786-0 renal): > 100 µM | TGI (A549 NSCLC): > 100 µM | TGI (ACHN renal): > 100 µM | TGI (CAKI-1 renal): > 100 µM | TGI (CCRF-CEM leukemia): > 100 µM | TGI (COLO 205 colon): > 100 µM | TGI (DMS 114 small cell lung): > 100 µM | TGI (DMS 273 small cell lung): > 100 µM | TGI (EKVX NSCLC): > 100 µM | TGI (HCC-2998 colon): > 100 µM | TGI (HCT-116 colon): > 100 µM | TGI (HCT-15 colon): > 100 µM | TGI (HL-60(TB) leukemia): > 100 µM | TGI (HOP-18 NSCLC): > 100 µM | TGI (HOP-62 NSCLC): > 100 µM | TGI (HOP-92 NSCLC): > 100 µM | TGI (HT29 colon): > 100 µM | TGI (IGROV1 ovarian): > 100 µM | TGI (K-562 leukemia): > 100 µM | TGI (KM12 colon): > 100 µM | TGI (KM20L2 colon): > 100 µM | TGI (LXFL 529 NSCLC): > 100 µM | TGI (M14 melanoma): > 100 µM | TGI (M19-MEL melanoma): > 100 µM | TGI (MALME-3M melanoma): > 100 µM | TGI (MOLT-4 leukemia): > 100 µM | TGI (NCI-H226 lung): > 100 µM | TGI (NCI-H23 lung): > 100 µM | TGI (NCI-H460 lung): > 100 µM | TGI (NCI-H522 lung): > 100 µM | TGI (OVCAR-3 ovarian): > 100 µM | TGI (OVCAR-4 ovarian): > 100 µM | TGI (OVCAR-5 ovarian): > 100 µM | TGI (OVCAR-8 ovarian): > 100 µM | TGI (RPMI-8226 leukemia): > 100 µM | TGI (RXF 393 renal): > 100 µM | TGI (SF-268 CNS): > 100 µM | TGI (SF-295 CNS): > 100 µM | TGI (SF-539 CNS): > 100 µM | TGI (SK-MEL-2 melanoma): > 100 µM | TGI (SK-MEL-28 melanoma): > 100 µM | TGI (SK-MEL-5 melanoma): > 100 µM | TGI (SK-OV-3 ovarian): > 100 µM | TGI (SN12C renal): > 100 µM | TGI (SNB-19 CNS): > 100 µM | TGI (SNB-75 CNS): > 100 µM | TGI (SNB-78 CNS): > 100 µM | TGI (SR leukemia): > 100 µM | TGI (SW-620 colon): > 100 µM | TGI (U251 CNS): > 100 µM | TGI (UACC-257 melanoma): > 100 µM | TGI (UACC-62 melanoma): > 100 µM | TGI (UO-31 renal): > 100 µM

COc1ccc(NC(=O)CC(=O)N/N=C(\C)c2cc3ccccc3oc2=O)cc1
TGI (786-0 renal): > 100 µM | TGI (A549 NSCLC): > 100 µM | TGI (ACHN renal): > 100 µM | TGI (CCRF-CEM leukemia): > 100 µM | TGI (COLO 205 colon): > 100 µM | TGI (DLD-1 colon): > 100 µM | TGI (DMS 114 small cell lung): > 100 µM | TGI (DMS 273 small cell lung): > 100 µM | TGI (EKVX NSCLC): > 100 µM | TGI (HCT-116 colon): > 100 µM | TGI (HCT-15 colon): > 100 µM | TGI (HL-60(TB) leukemia): > 100 µM | TGI (HOP-18 NSCLC): > 100 µM | TGI (HOP-62 NSCLC): > 100 µM | TGI (HT29 colon): > 100 µM | TGI (IGROV1 ovarian): > 100 µM | TGI (K-562 leukemia): > 100 µM | TGI (KM12 colon): > 100 µM | TGI (KM20L2 colon): > 100 µM | TGI (LOX IMVI melanoma): > 100 µM | TGI (M14 melanoma): > 100 µM | TGI (M19-MEL melanoma): > 100 µM | TGI (MALME-3M melanoma): > 100 µM | TGI (MOLT-4 leukemia): > 100 µM | TGI (NCI-H226 lung): > 100 µM | TGI (NCI-H23 lung): > 100 µM | TGI (NCI-H460 lung): > 100 µM | TGI (NCI-H522 lung): > 100 µM | TGI (OVCAR-3 ovarian): > 100 µM | TGI (OVCAR-8 ovarian): > 100 µM | TGI (RPMI-8226 leukemia): > 100 µM | TGI (RXF 393 renal): > 100 µM | TGI (SF-295 CNS): > 100 µM | TGI (SF-539 CNS): > 100 µM | TGI (SK-MEL-28 melanoma): > 100 µM | TGI (SK-MEL-5 melanoma): > 100 µM | TGI (SK-OV-3 ovarian): > 100 µM | TGI (SN12C renal): > 100 µM | TGI (SNB-19 CNS): > 100 µM | TGI (SNB-75 CNS): > 100 µM | TGI (SW-620 colon): > 100 µM | TGI (TK-10 renal): > 100 µM | TGI (U251 CNS): > 100 µM | TGI (UACC-257 melanoma): > 100 µM | TGI (UACC-62 melanoma): > 100 µM | TGI (UO-31 renal): > 100 µM
